In brackets after ≈: the same amount, converted by molar mass. Like-named read-outs stand apart in the source and are kept apart here.
What was measured:
Assay type in all cases: cell-based
[1] = tested on: Candida parapsilosis ATCC 22019; experiment: microbe, parasite or virus in culture; details: Lodderomyces parapsilosis, ATCC22019; read-out: Minimum Fungicidal Concentration, Candida parapsilosis ATCC 22019
Procedure: (§1) The anti-fungal activity of Domain III derived peptides was evaluated against a variety of fungal species, including species of Candida. Cryptococcus, Fusarium, Trichophyton, and Aspergillus, by an additional assay protocol utilizing Alamar Blue. Alamar Blue is an indicator dye formulated to measure quantitatively the proliferation of a variety of human or animal cells, bacteria, or fungi. It consists of an oxidation-reduction (REDOX) indicator that yields a colorimetric change in response to metabolic activity. For these experiments, species of Candida and Cryptococcus were grown in Sabouraud's dextrose broth (SDB) overnight. Strains of filamentous fungi (Aspergilius, Fusanum, Trichophyton) were obtained by irrigation of a confluent culture from a petri dish. Cells were washed and adjusted to a concentration of 5.0×10^3/mL in fresh SDB. […] Controls included amphotericin B, fluconazole, ketoconazole and griseofulvin. Antifungal drugs were also diluted in the same manner. Assays were performed in 96-well microuiter plates. […] The wells to be plated were determined by OD590 readings. The lowest concentration of peptide which maintained the blue color (or OD reading) of the blank was chosen along with the next two higher concentrations. Plates were allowed to grow for 18-48 hours depending on the rate of growth of each fungus. Minimal fungicidal activity (MFC) was determined as a 99.9% killing of the starting inoculum.

[2] = tested on: Candida glabrata ATCC 2001; experiment: microbe, parasite or virus in culture; details: Nakaseomyces glabratus, ATCC2001; read-out: Minimum Fungicidal Concentration, Candida glabrata ATCC 2001
Procedure: as §1

[3] = tested on: Candida albicans (SLU-1 and ATCC strains); experiment: microbe, parasite or virus in culture; details: Candida albicans
Procedure: as §1

[4] = tested on: Aspergillus niger ATCC 16404; experiment: microbe, parasite or virus in culture; details: Aspergillus niger, ATCC16404; read-out: Minimum Fungicidal Concentration, Aspergillus niger ATCC 16404
Procedure: as §1

[5] = tested on: Cryptococcus neoformans ATCC 13690; experiment: microbe, parasite or virus in culture; details: Cryptococcus neoformans, ATCC13690; read-out: Minimum Fungicidal Concentration, Cryptococcus neoformans ATCC 13690
Procedure: as §1

[6] = tested on: Fusarium solani ATCC 36031; experiment: microbe, parasite or virus in culture; details: Fusarium solani, ATCC36031; read-out: Minimum Fungicidal Concentration, Fusarium solani ATCC 36031
Procedure: as §1

[7] = tested on: Aspergillus ATCC 13073; experiment: microbe, parasite or virus in culture; details: Aspergillus, ATCC13073; read-out: Minimum Fungicidal Concentration, Aspergillus ATCC 13073
Procedure: as §1

[8] = tested on: Trychophyton rubrum ATCC 28188; experiment: organism not typed; details: read-out: Minimum Fungicidal Concentration, Trychophyton rubrum ATCC 28188
Procedure: as §1

[9] = ATCC10231, strain ATCC 10231, read-out: Minimum Fungicidal Concentration, Candida albicans ATCC 10231
[10] = ATCC18840, strain ATCC 18840, read-out: Minimum Fungicidal Concentration, Candida albicans ATCC 18840
[11] = ATCC26555, strain ATCC 26555, read-out: Minimum Fungicidal Concentration, Candida albicans ATCC 26555
[12] = ATCC44808, strain ATCC 44808, read-out: Minimum Fungicidal Concentration, Candida albicans ATCC 44808
[13] = ATCC90028, strain ATCC 90028, read-out: Minimum Fungicidal Concentration, Candida albicans ATCC 90028

In the case of OC(Cn1cncn1)(Cn1cncn1)c1ccc(F)cc1F [Fluconazole, fluconazole], the MFC [1] is reported as greater than 10 µg/mL, the MFC [2] is reported as greater than 10 µg/mL and the MFC [3, 9] is reported as greater than 10 µg/mL. For the same molecule, the MFC [3, 10] was greater than 10 µg/mL, the MFC [3, 11] was greater than 10 µg/mL and the MFC [3, 12] was greater than 10 µg/mL. It also gave an MFC [3, 13] greater than 10 µg/mL, an MFC ([3]; strain SLU-1, read-out: Minimum Fungicidal Concentration, Candida albicans SLU-1) greater than 10 µg/mL and an MFC [4] greater than 10 µg/mL. The MFC [5] was greater than 10 µg/mL, the MFC [6] was greater than 10 µg/mL and the MFC [7] was greater than 50 µg/mL. The MFC [8] was greater than 10 µg/mL.

CC(=O)N1CCN(c2ccc(OCC3COC(Cn4ccnc4)(c4ccc(Cl)cc4Cl)O3)cc2)CC1 (stereo not shown) [Ketoconazole, ketoconazole] was tested, and the MFC [1] was 5 µg/mL (≈ 9.41 µM), the MFC [2] was greater than 10 µg/mL and the MFC [3, 9] was greater than 10 µg/mL. The MFC [3, 10] was greater than 10 µg/mL, the MFC [3, 11] was greater than 10 µg/mL and the MFC [3, 12] was greater than 10 µg/mL. It also gave an MFC [3, 13] greater than 10 µg/mL, an MFC [4] greater than 10 µg/mL and an MFC [6] greater than 10 µg/mL.

Source: patent US6664231B1, “Anti-fungal peptides” (priority 1993, dated 2003)
